Reference: patent publication US20150064289A1, “Raw Extract of a Sechium Edule Hybrid, Method for Extracting Same and Use Thereof for Formulations Having an Antineoplastic Effect” (priority 2012, published 2015)

How the values were obtained:
normal bone marrow cells = test: Proliferation of normal bone marrow cells, crystal violet technique; assay type: cell-based; settings: normal mouse bone marrow cells; 5 µg/mL of citarabine; 5 days
Description: To determine the effect of the extract of Sechium edule hybrid named MH-387-07-GISeM” on tumor cells, HeLa cell lines, which are derived from adenocarcinoma of […] cervical epithelial tissue; cell line L929 derived from male mouse's fibrosarcoma of areolar and adipose subcutaneous connective […] tissue, WEHI-3 y K562 are lines derived from leukemia (liquid tumors) which are maintained in IMDM culture medium (Iscove's Modified Dulbecco's Medium). Tumor cells were cultured for 72 hours in 200 μL of culture medium and serum containing 0.0, 0.15, 0.3, 0.6, 1.2, 2.5 and 5 μg/mL of extract, and were evaluated by the crystal violet technique (FIG. 1). Cells were maintained in culture for 5 days after being stimulated with diverse doses of extract or Ara-C as a control (5 μM), and were evaluated by the crystal violet technique, FIG. 1, where a dose-response curve of the effect of H-387-07-GISeM extract on cell proliferation of lines EHI-3, HeLa, L929, and bone marrow cells was plotted. Values are the average of three tests with tree replicates. Lines above the bars indicate±standard deviation. * Significant difference (p<0.05) compared to control. […] On the other hand, normal bone marrow cells of mouse treated with […] achieve a proliferation of 60% compared to the control, but with 5 µg/mL of citarabine (Ara-c) it only reaches a 35%.

WEHI-3 [1] = test: Apoptotic bodies by morphology (Giemsa), WEHI-3; assay type: cell-based, mouse; settings: 48 hrs, Ara-C 5 μg/mL, mean ± standard deviation
Description: (§1) Once elapsed that time, cells were collected and placed on a slide; then were fixed with 1 mL of methanol and stained for 20 minutes with 10% Giemsa stain. Cells were observed under a microscope (Cari Zeiss, Primo Star, Germany) equipped with 100× objective lens. Morphological changes like decreased cell volume, chromatin condensation, loss of cell membrane regularity, were cytomorphological parameters evaluated in the formation of apoptotic bodies. 200 cells of each experiment were counted to obtain the percentage of normal and apoptotic cells.

HeLa = test: Apoptotic bodies by morphology (Giemsa), HeLa; assay type: cell-based, human; settings: 48 hrs, Ara-C 5 μg/mL, mean ± standard deviation
Description: as §1

L929 = test: Apoptotic bodies by morphology (Giemsa), L929; assay type: cell-based, mouse; settings: 48 hrs, Ara-C 5 μg/mL, mean ± standard deviation
Description: as §1

K-562 = test: Cell viability by trypan blue exclusion, K-562; assay type: cell-based; settings: K562
Description: On the other hand, the cell viability was evaluated in order to determine that the extract only acts against tumor cells, for which purpose tumor cells were cultured for 72 hours under the above conditions in quantities of 200 μL of medium per well in 96-well, flat bottom, ultra-low adherence plates (Costar, Cambridge, Mass., USA) with various doses of extract.

WEHI-3 [2] = test: Apoptosis induction through DNA fragmentation (agarose gel); settings: WEHI-3 grown 48 hours, extract at IC50, FIG. 3
Description: Apoptosis induction was evaluated through DNA fragmentation.

For `Nc1ccn([C@@H]2O[C@H](CO)[C@@H](O)[C@@H]2O)c(=O)n1` [Ara-C, citarabine], the “proliferation compared to the control” value (normal bone marrow cells) was 35%, the “% Apoptotic bodies” value (WEHI-3 [1]) was 61.5 ± 8.2% and the “% Apoptotic bodies” value (HeLa) was 21 ± 0%. The “% Apoptotic bodies” value (L929) was 6 ± 1.4%, the effect on viability (K-562; Ara-c as worded in text) was “totally does so” and the DNA fragmentation (WEHI-3 [2]) was “experiences DNA fragmentation”.
Work on `Cc1ccc(NC(=O)c2ccc(CN3CCN(C)CC3)cc2)cc1Nc1nccc(-c2cccnc2)n1` [imatinib] yielded a viability at 1 µM (K-562; Homo sapiens, K-562, imatinib 1 μM (footnote), mean ± standard deviation) of 4%.
